Experimental data as given in patent US9902736B2, “1-oxo/acylation-14-acylated oridonin derivative, preparation method therefor and application thereof” (HANGZHOU BENSHENG PHARMACEUTICAL CO., LTD., priority 2012, dated 2018).
Values after ≈ are worked out from the molar mass of the structure shown.

Tests used:
[1] = tested on: RKO; assay: Solid tumor cell growth inhibition, MTT, 72 h; type: cell-based; details: Homo sapiens
Method: (§1) 6000 well-growing human solid tumor cells were obtained and inoculated into wells of a 96-well cell culture plate. The culture medium was DMEM High Glucose cell culture medium containing 10% fetal bovine serum. The plate was placed in a carbon dioxide cell incubator (5% CO2) at 37° C. and incubated for 24 hours. After added with 1-oxo/acylated-14-acylated oridonin derivatives of different concentration and mixed uniformly, the plate was placed in a carbon dioxide cell incubator (5% CO2) at 37° C. and incubated for 72 hours. Then the viable cell concentration was determined by MTT method.

[2] = tested on: MG-63; assay: Solid tumor cell growth inhibition, MTT, 72 h; type: cell-based; details: Homo sapiens
Method: as §1

[3] = tested on: A549; assay: Solid tumor cell growth inhibition, MTT, 72 h; type: cell-based; details: Homo sapiens
Method: as §1

[4] = tested on: PC-3; assay: Solid tumor cell growth inhibition, MTT, 72 h; type: cell-based; details: Homo sapiens
Method: as §1

[5] = tested on: SK-OV-3; assay: Solid tumor cell growth inhibition, MTT, 72 h; type: cell-based; details: Homo sapiens, SK-OV-3, 72 h, MTT
Method: as §1

[6] = tested on: Hep G2; assay: Solid tumor cell growth inhibition, MTT, 72 h; type: cell-based; details: Homo sapiens, HepG2
Method: as §1

[7] = tested on: Becap-37; assay: Solid tumor cell growth inhibition, MTT, 72 h; type: cell-based; details: Homo sapiens
Method: as §1

[8] = tested on: CaEs-17; assay: Solid tumor cell growth inhibition, MTT, 72 h; type: cell-based; details: Homo sapiens, CaEs17
Method: as §1

[9] = tested on: PANC-1; assay: Solid tumor cell growth inhibition, MTT, 72 h; type: cell-based; details: Homo sapiens
Method: as §1

[10] = tested on: U87-MG; assay: Solid tumor cell growth inhibition, MTT, 72 h; type: cell-based; details: Homo sapiens, U-87 MG
Method: as §1

[11] = tested on: Jurkat; assay: Leukemia cell growth inhibition, MTT, 72 h; type: cell-based, human; details: Homo sapiens, Jurkat; 72 h, MTT
Source text: (§2) Leukemia cell lines: leukemia cell lines: K562/adr (drug-resistant, chronic myeloid leukemia, CML), NB4 (acute promyelocytic leukemia, AML), Kasumi-1 (acute myeloid leukemia M2 type, AML-M2), Jurkat (acute lymphoblastic leukemia, ALL), all of which were donated by Cancer Research Institute of Zhejiang University, China; and H9 (acute lymphoblastic leukemia, ALL), which was purchased from China Center for Type Culture Collection.
(§3) 6000 well-growing leukemia cells were obtained and inoculated into wells of a 96-well cell culture plate. […] On the next day, the 1-oxo/acylated-14-acylated oridonin derivatives of different concentrations were added and mixed uniformly. The plate was placed in a carbon dioxide cell incubator (5% CO2) at 37° C. and was incubated for 72 hours. Then the viable cell concentration was determined by MTT method.

[12] = tested on: H9; assay: Leukemia cell growth inhibition, MTT, 72 h; type: cell-based, human; details: Homo sapiens, H9; 72 h, MTT
Source text: as §2, §3

[13] = tested on: NB4; assay: Leukemia cell growth inhibition, MTT, 72 h; type: cell-based, human; details: Homo sapiens, NB-4; 72 h, MTT
Source text: as §2, §3

[14] = tested on: RPMI 8226; assay: Multiple myeloma cell growth inhibition, MTT, 72 h; type: cell-based; details: Homo sapiens
Method: Multiple myeloma cell lines: RPMI8226 (multiple myeloma), purchased from Fuxiang Bio-tech Co. Ltd., Shanghai, China.
as §3, with “well-growing” for “well-growing leukemia”, “and” for “and was”

[15] = tested on: Hep-2; assay: Solid tumor cell growth inhibition, MTT, 72 h; type: cell-based, human; details: Homo sapiens, HEp-2; 72 h, MTT
Method: as §1

[16] = tested on: Hela; assay: Solid tumor cell growth inhibition, MTT, 72 h; type: cell-based, human; details: Homo sapiens, HeLa; 72 h, MTT
Method: as §1

[17] = tested on: MGC-803; assay: Solid tumor cell growth inhibition, MTT, 72 h; type: cell-based, human; details: Homo sapiens, MGC-803; 72 h, MTT
Method: as §1

[18] = tested on: CNE; assay: Solid tumor cell growth inhibition, MTT, 72 h; type: cell-based, human; details: Homo sapiens, CNE; 72 h, MTT
Method: as §1

[19] = tested on: K562/ADR; assay: Leukemia cell growth inhibition, MTT, 72 h; type: cell-based; details: Homo sapiens
Source text: as §2, §3

[20] = tested on: Kasumi-1; assay: Leukemia cell growth inhibition, MTT, 72 h; type: cell-based; details: Homo sapiens
Source text: as §2, §3

IC50 [1]: 0.68 µg/mL (≈ 1.15 µM)
IC90 [1]: 1.68 µg/mL (≈ 2.83 µM)
IC50 [2]: 0.76 µg/mL (≈ 1.28 µM)
IC90 [2]: 1.7 µg/mL (≈ 2.87 µM)
IC50 [3]: 5.07 µg/mL (≈ 8.55 µM)
IC90 [3]: 11.3 µg/mL (≈ 19.1 µM)
IC50 [4]: 3.16 µg/mL (≈ 5.33 µM)
IC90 [4]: 6.8 µg/mL (≈ 11.5 µM)
IC50 ([5]; read-out: IC50 SK-OV-3): 3.16 µg/mL (≈ 5.33 µM)
IC90 ([5]; read-out: IC90 SK-OV-3): 6.8 µg/mL (≈ 11.5 µM)
IC50 [6]: 2.83 µg/mL (≈ 4.77 µM)
IC90 [6]: 11.9 µg/mL (≈ 20.1 µM)
IC50 [7]: 2.21 µg/mL (≈ 3.73 µM)
IC90 [7]: 6.5 µg/mL (≈ 11 µM)
IC50 [8]: 1.71 µg/mL (≈ 2.89 µM)
IC90 [8]: 10.2 µg/mL (≈ 17.2 µM)
IC50 [9]: 3.14 µg/mL (≈ 5.3 µM)
IC90 [9]: 9.16 µg/mL (≈ 15.5 µM)
IC50 [10]: 1.29 µg/mL (≈ 2.18 µM)
IC90 [10]: 4.61 µg/mL (≈ 7.78 µM)
IC50 [11]: 0.89 µg/mL (≈ 1.5 µM)
IC90 [11]: 4.13 µg/mL (≈ 6.97 µM)
IC50 [12]: 0.56 µg/mL (≈ 0.945 µM)
IC90 [12]: 1.54 µg/mL (≈ 2.6 µM)
IC50 [13]: 0.31 µg/mL (≈ 0.523 µM)
IC90 [13]: 0.99 µg/mL (≈ 1.67 µM)
IC50 [14]: 0.85 µg/mL (≈ 1.43 µM)
IC90 [14]: 2.92 µg/mL (≈ 4.93 µM)
IC50 [15]: 3.13 µg/mL (≈ 5.28 µM)
IC90 [15]: 15.5 µg/mL (≈ 26.2 µM)
IC50 [16]: 1.92 µg/mL (≈ 3.24 µM)
IC90 [16]: 4.95 µg/mL (≈ 8.35 µM)
IC50 [17]: 1.26 µg/mL (≈ 2.13 µM)
IC90 [17]: 5.57 µg/mL (≈ 9.4 µM)
IC50 [18]: 1.52 µg/mL (≈ 2.56 µM)
IC90 [18]: 4.42 µg/mL (≈ 7.46 µM)
IC50 [19]: 0.58 µg/mL (≈ 0.979 µM)
IC90 [19]: 1.94 µg/mL (≈ 3.27 µM)
IC50 [20]: 1.09 µg/mL (≈ 1.84 µM)
IC90 [20]: 2.59 µg/mL (≈ 4.37 µM)
Structure (SMILES): C=C1C(=O)[C@]23[C@H](OC(=O)C4CCC(NC(=O)c5ccccn5)CC4)[C@H]1CC[C@H]2[C@@]12CO[C@@]3(O)[C@@H](O)[C@@H]1C(C)(C)CCC2=O (stereo partly shown) [BS-OR-083]
